In ChEMBL document CHEMBL3243934, “Synthesis and antiinflammatory activity of cis-4,5,6,7,8,8a,9-hexahydro-alpha-methyl-5H-fluorene-2-acetic acid” (1977):

What was measured:
[1] = test system: Rattus norvegicus; test: Antiinflammatory activity in rat assessed as inhibition of carrageenan-induced paw edema at 150 mg/kg; format: functional
[2] = test system: Oryctolagus cuniculus; test: Antiinflammatory activity in rabbit assessed as inhibition of edema at 200 ug per site by reversed passive arthus test; format: functional

| SMILES | inhibition in vivo at 150 mg/kg [1] [%] | inhibition (INH) [2] [%] |
| --- | --- | --- |
| CC(C(=O)O)c1ccc2c(c1)C[C@H]1CCCC[C@@H]21 (stereo not given in full) | 63 | 55 |
| CC(C(=O)O)c1ccc2c(c1)Cc1ccccc1-2 (stereo not given) [CICLOPROFEN] | 66 | 36 |
| CC(C)Cc1ccc(C(C)C(=O)O)cc1 (stereo not given) [IBUPROFEN] | 56 | 54 |
| COc1ccc2c(c1)c(CC(=O)O)c(C)n2C(=O)c1ccc(Cl)cc1 [INDOMETHACIN] | – | 57 |
| COc1ccc2cc([C@H](C)C(=O)O)ccc2c1 [NAPROXEN] | – | 55 |
| CCCCC1C(=O)N(c2ccccc2)N(c2ccccc2)C1=O [PHENYLBUTAZONE] | 59 | 44 |
